Results reported in patent US20250152650A1, “COMPOSITIONS FOR TREATING SEA LICE IN SALMON AND RELATED METHODS” (KEMIN INDUSTRIES, INC., priority 2023, published 2025).
Like-named read-outs stand apart in the source and are kept apart here.

Legend:
[1] = system: mobile stage sea lice (adults and pre-adults); assay: Mobile stages bioassay; design: species or system Lepeophtheirus salmonis
[2] = system: copepodid sea lice; conditions: 10 parts per trillion, purified compounds; cited from earlier work
[3] = system: L. salmonis copepodids of Canadian origin; assay: Copepodid bioassay, copepodids of Canadian origin; design: species or system Lepeophtheirus salmonis; conditions: for Mean proportion of survival: 24 hours exposure
[4] = system: copepodids of Norwegian origin; conditions: for Mean proportion of survival: 24 hours exposure
[5] = system: sea lice; assay: In-feed trial with sea lice challenge in Atlantic salmon; assay type: in vivo, Atlantic salmon (Salmo salar); conditions: for Reduction Versus Control: reduction in mean number of lice at 6-7 dpi versus Control Diet; for Reduction Versus Control / Reduction Versus SLICE: diet doses as in Table 10; for Reduction Versus SLICE: reduction in mean number of lice at 6-7 dpi versus SLICE (10 ppm) diet; for Mean Number of Lice: total copepodid and chalimus lice per fish at 6-7 dpi, study diet fed 3 weeks before challenge with approx. 140 lice per fish, O-LD oregano oil 2000 ppm, O-HD 5000 ppm, M-LD Monarda fistulosa oil 2000 ppm, thymol 1000 ppm, thymoquinone 500 ppm, SLICE 10 ppm
[6] = system: copepodids of Norwegian origin; assay: whole plant or invertebrate; conditions: Lepeophtheirus salmonis, 24 h, read-out: lethality / lice mortality
[7] = system: salmon; conditions: farmed salmon; cited from earlier work

Row | Compound | Mean proportion of survival ([1]; 10 ppm, 6 hours exposure) [%] | Mean proportion of survival ([1]; 10 ppm, 24 hours exposure) [%] | masking of copepodid attraction to hosts or alpha-isophorone conditioned seawater [2] | Mean proportion of survival ([4]; 0.01 ppb) [%] | Mean proportion of survival ([4]; 0.1 ppb) [%] | Mean proportion of survival ([4]; 1 ppb) [%] | Mean proportion of survival ([4]; 1 ppm) [%] | Mean proportion of survival ([4]; 10 ppb) [%] | Mean proportion of survival ([4]; 10 ppm) [%] | Mean proportion of survival ([4]; 100 ppb) [%] | Reduction Versus Control [5] [%] | Reduction Versus SLICE [5] [%] | Mean Number of Lice [5] | Mean proportion of survival ([1]; 1 ppb, 6 hours exposure) [%] | Mean proportion of survival ([1]; 1 ppb, 24 hours exposure) [%] | Mean proportion of survival ([1]; 1 ppm, 6 hours exposure) [%] | Mean proportion of survival ([1]; 1 ppm, 24 hours exposure) [%] | Mean proportion of survival ([1]; 10 ppb, 6 hours exposure) [%] | Mean proportion of survival ([1]; 10 ppb, 24 hours exposure) [%] | Mean proportion of survival ([1]; 100 ppb, 6 hours exposure) [%] | also measured
1 | C=CCSSCC=C [Diallyl disulfide, diallyl disulfide] | 100.0 ± 0.0 | 96.7 ± 4.7 | masked copepodid sea lice attraction to hosts | – | – | – | – | – | – | – | – | – | – | – | – | – | – | – | – | – | survival compared to control, in words ([1]; 10 and 100 ppm): did not result in different survival compared to control; Mean proportion of survival ([1]; 100 ppm, 6 hours exposure): 96.2 ± 5.4%; Mean proportion of survival ([1]; 100 ppm, 24 hours exposure): 88.7 ± 5.8%; Mean proportion of survival ([3]; 1 ppb): 96.9 ± 2.7%; Mean proportion of survival ([3]; 1 ppm): 86.3 ± 4.0%; Mean proportion of survival ([3]; 10 ppb): 93.6 ± 8.0%; Mean proportion of survival ([3]; 10 ppm): 34.6 ± 6.4%; Mean proportion of survival ([3]; 10 ppm, listed as DD): 34.6%; Mean proportion of survival ([3]; 100 ppb): 95.2 ± 4.6%; Mean proportion of survival ([3]; 100 ppm (0.01%)): 17.4 ± 3.2%; Mean proportion of survival ([3]; 100 ppm (0.01%), listed as DD): 17.4%
2 | Cc1ccc(C(C)C)c(O)c1 [Thymol] | 23.7 ± 6.9 | – | – | 98.7 ± 2.2 | 93.9 ± 4.4 | 100.0 ± 0.0 | 87.9 ± 3.9 | 93.1 ± 9.3 | 56.1 ± 2.0 | 84.4 ± 6.1 | 1.2 | −14.6 | 86.5 | 100.0 ± 0.0 | 96.2 ± 5.4 | 92.8 ± 0.7 | 92.8 ± 0.7 | 95.8 ± 5.9 | 88.1 ± 5.0 | 97.1 ± 4.2 | Mean proportion of survival ([1]; 1 ppm, 24 hours exposure, listed as thymol): not significantly different to control; Mean proportion of survival ([1]; 100 ppb, 24 hours exposure): 97.1 ± 4.2%
3 | CC1=CC(=O)C(C(C)C)=CC1=O [Thymoquinone] | 60.7 ± 5.1 | 0.0 ± 0.0 | – | 98.1 ± 3.2 | 98.6 ± 2.4 | 97.3 ± 2.5 | 75.6 ± 9.3 | 100.0 ± 0.0 | 0.0 ± 0.0 | 92.9 ± 9.1 | 1.7 | 21.7 | 59.1 | 93.3 ± 9.4 | 93.3 ± 9.4 | 100.0 ± 0.0 | 83.7 ± 14.7 | 81.7 ± 5.4 | 87.1 ± 5.4 | 91.7 ± 2.4 | Mean proportion of survival ([4]; 1 ppm, listed as thymoquinone): did not result in a biologically significant reduction in survival; mortality at 10 ppm [6]: 100%; Mean proportion of survival ([1]; 1 ppm, 24 hours exposure, listed as thymoquinone): not significantly different to control; Mean proportion of survival ([1]; 10 ppm, 24 hours exposure, listed as thymoquinone): completely lethal; Mean proportion of survival ([1]; 100 ppb, 24 hours exposure): 91.7 ± 2.4%
4 | C=CCSCC=C [diallyl sulfide] | – | – | masked copepodid sea lice attraction to hosts | – | – | – | – | – | – | – | – | – | – | – | – | – | – | – | – | – | –
5 | OO [hydrogen peroxide] | – | – | – | – | – | – | – | – | – | – | – | – | – | – | – | – | – | – | – | – | mortality caused by a single treatment [7]: 1%
6 | emamectin benzoate [EMB, reference compound] | – | – | – | – | 0.0 ± 0.0 | 0.0 ± 0.0 | – | 0.0 ± 0.0 | – | – | – | – | – | – | – | – | – | – | – | 96.7 ± 4.7 | survival, in words ([4]; all tested concentrations between 10 and 0.1 ppb): no survival; Mean proportion of survival ([1]; 200 ppb, 6 hours exposure): 56.7 ± 4.7%; Mean proportion of survival ([1]; 200 ppb, 24 hours exposure): 53.3 ± 18.9%; Mean proportion of survival ([1]; 400 ppb, 6 hours exposure): 36.7 ± 14.1%; Mean proportion of survival ([1]; 400 ppb, 24 hours exposure): 23.3 ± 4.7%; Mean proportion of survival ([1]; 500 ppb, 24 hours, follow up trial): 46.9 ± 9.8%; survival, range over the dilution set ([3]; 0.5-50 ppb, 24 hours): 35.5-53.2%; Mean proportion of survival ([3]; 0.5 ppb): 53.2 ± 10.2%; Mean proportion of survival ([3]; 5 ppb): 50.7 ± 6.1%; Mean proportion of survival ([3]; 50 ppb): 35.5 ± 2.1%
